Laboratory results published in patent US6586639B2, “Functional alcohol releasing substance” (Kao Corporation, priority 1999, dated 2003).
Values joined by “and” are separate entries in the source; they are usually repeats but may differ in a detail not shown here. Equal entries are not always repeated.

System: Aspergillus niger
Assay: Fungal resistance test on coated test cloth
Type: cell-based
Parameters: key to Judgment (fungal resistance): NG: Completely no fungal growth; TG: Growth on less than 10% of the surface area; SG: Growth on 10% or more and less than 30% of the surface area; MG: Growth on 30% or more and less than 60% of the surface area; HG: Growth on 60% or more of the surface area
Settings: cultured 29±1° C. 7 days; for Growth rate (%) Average: average of three test cloths; for Growth rate (%): single test cloths (three per solution), 0.3 ml ethanol solution (A 1.17%, B 1.00%, C 0.300%) coated, dried 48 hours
Procedure: Each of betaine ester (1), betaine ester (3) and geraniol was dissolved in 99.5% ethanol to prepare solutions having the following concentrations and used as test solutions (A), (B) and (C), respectively.
Test solution (A): betaine ester (1), 1.17% in concentration
Test solution (B): betaine ester (3), 1.00% in concentration
Test solution (C): geraniol, 0.300% in concentration
(1) Preparation of test cloth
A 0.3 ml portion of each test solution or 0.3 ml of 99.5% ethanol used as a control was separately coated on a cotton-polyester mixture test cloth cut into a disc of 25 mm in diameter and then the cloth was dried at 25° C. under 30% relative humidity for 48 hours to be used as a test cloth. Three sheets of the test cloth were prepared for one test solution and used in the test.
(2) Fungal resistance test
A plate agar medium having the following composition was prepared to a thickness of 15 mm in a Petri dish of 150 mm in diameter. The medium was used by sterilizing it in advance at 120° C. for 20 minutes in an autoclave.
Pure water: 1,500 ml, glucose: 15 g, agar: 23 g, inorganic salts stock solution (NH4NO3 90 g, KH2PO4 60 g, MgSO4 7H2O, 15 g, KCl 15 g, pure water 1,000 g): 50 ml
Each test cloth was put on the above medium, and about 1 ml of a spore suspension prepared by dispersing spores of a fungus (Aspergillus niger) in sterile water (containing 0.005% sodium dioctylsulfosuccinate) was sprayed. This was cultured at 29±1° C. for 7 days to carry out comparative test of fungal resistance by inspecting growing condition of the fungus on the periphery or surface of the sample, and the results were evaluated based on the following five step criteria by observing growth condition of the fungus on the test cloth surface with the naked eye and under a microscope. That is, when the fungus is not grown on the surface of a test cloth and also, when the test cloth is peeled from the medium, the fungus is not grown on the backside but forming an inhibition zone, the result is judged as excellent in fungal resistance (NG).
Completely no fungal growth: NG (no growth)
Growth on less than 10% of the surface area: TG (trace of growth)
Growth on 10% or more and less than 30% of the surface area: SG (slight growth)
Growth on 30% or more and less than 60% of the surface area: MG (moderate growth)
Growth on 60% or more of the surface area: HG (heavy growth)

SMILES	Growth rate (%) Average	Judgment (fungal resistance)	Growth rate (%)	Growth rate (%) (listed as (C))
CCCCCCCCCCCCCCCCCC(=O)NCCC[N+](C)(C)CC(=O)OC/C=C(\C)CCC=C(C)C.[Cl-] [betaine ester (1), N,N-dimethyl-N-geranyloxycarbonylmethyl-N-(3-(octadecanoylamino)propyl)ammonium chloride]	0%	NG	0%	–
CCCCCCCCCCCC(=O)NCCC[N+](C)(C)CC(=O)OC/C=C(\C)CCC=C(C)C.[Cl-] [betaine ester (3), N,N-dimethyl-N-geranyloxycarbonylmethyl-N-(3-(dodecanoylamino)propyl)ammonium chloride]	0%	NG	0%	–
CC(C)=CCC/C(C)=C/CO [geraniol, reference compound]	36%	MG (Growth on 30% or more and less than 60% of the surface area)	–	35% and 32% and 40%
